From patent US8785452B2, “Anti-infective compounds” (priority 2008, dated 2014)
Values after ≈ are worked out from the molar mass of the structure shown.

Each compound was assayed on M. tuberculosis H37Rv-GFP (assay: microbe, parasite or virus in culture). Details: not given.
Type: cell-based, Mycobacterium tuberculosis

Structure (SMILES) | minimal inhibitory concentration (MIC)
NNC(=O)c1ccncc1 [INH, isoniazid, reference compound] | 0.16 ± 0.05 µg/mL (≈ 1.17 µM)

Same assay, conditions: Mycobacterium tuberculosis, H37RV, 120 h; read-out: minimal inhibitory concentration (MIC)

Structure (SMILES) | MIC
NNC(=O)c1ccncc1 [INH, isoniazid, reference compound] | 0.1 µg/mL (≈ 0.729 µM)

Same assay, conditions: Mycobacterium tuberculosis, H37RV, Macrophage, read-out: Primary QIM % Inhibition

Structure (SMILES) | inhibition at 20 µM
COc1ccc(OCCNC(=O)c2cc([N+](=O)[O-])cc([N+](=O)[O-])c2)cc1 [IPK 000 028 35] | 94.5%
O=C(O)c1cn(C2CC2)c2cc(N3CCNCC3)c(F)cc2c1=O [IPK 000 117 14] | 69.1%

Same assay, conditions: Mycobacterium tuberculosis, H37RV, Macrophage, read-out: QIM Confirm % Inhibition 0.2 uM

Structure (SMILES) | inhibition at 0.2 µM
COc1ccc(OCCNC(=O)c2cc([N+](=O)[O-])cc([N+](=O)[O-])c2)cc1 [IPK 000 028 35] | 64.5%

Same assay, conditions: Mycobacterium tuberculosis, H37RV, Macrophage, read-out: QIM Confirm % Inhibition 2 uM

Structure (SMILES) | inhibition at 2 µM
COc1ccc(OCCNC(=O)c2cc([N+](=O)[O-])cc([N+](=O)[O-])c2)cc1 [IPK 000 028 35] | 102%

Same assay, conditions: Mycobacterium tuberculosis, H37RV, Macrophage, read-out: QIM Confirm % Inhibition 20 uM

Structure (SMILES) | inhibition at 20 µM
COc1ccc(OCCNC(=O)c2cc([N+](=O)[O-])cc([N+](=O)[O-])c2)cc1 [IPK 000 028 35] | 17.8%
O=C(O)c1cn(C2CC2)c2cc(N3CCNCC3)c(F)cc2c1=O [IPK 000 117 14] | 66.5%

Same assay, conditions: Mycobacterium tuberculosis, H37RV, Macrophage; confirmation, 0.2 uM, intracellular; read-out: QIM Confirm % Inhibition 0.2 uM

Structure (SMILES) | inhibition at 0.2 µM
O=C(Nc1ccc([N+](=O)[O-])cc1)C12CC3CC(CC(C3)C1)C2 [IPK 000 022 33] | 30.3%
Clc1ccc(Nc2nc3nonc3nc2Nc2ccc(Cl)c(Cl)c2)cc1Cl [IPK 000 003 89] | 20.1%
O=C(N/N=C/c1cccc([N+](=O)[O-])c1)c1ccncc1 [IPK 000 041 47] | 74.5%
O=C(N/N=C/c1cc(Br)cc(Br)c1O)c1ccncc1 [IPK 000 009 33] | 8.5%
O=C(NN=C1CCCC1)c1ccncc1 [IPK 000 013 70] | 50.5%
Cc1ccc2ccc3ccc(C)nc3c2n1 [IPK 000 002 03] | -2%
Brc1ccc(/C=N/Nc2nc(N3CCOCC3)nc(N3CCOCC3)n2)o1 [IPK 000 011 65] | 4.7%

Same assay, conditions: Mycobacterium tuberculosis, H37RV, Macrophage; confirmation, 2 uM, intracellular; read-out: QIM Confirm % Inhibition 2 uM

Structure (SMILES) | inhibition at 2 µM
O=C(Nc1ccc([N+](=O)[O-])cc1)C12CC3CC(CC(C3)C1)C2 [IPK 000 022 33] | 33.5%
Clc1ccc(Nc2nc3nonc3nc2Nc2ccc(Cl)c(Cl)c2)cc1Cl [IPK 000 003 89] | 86.6%
O=C(N/N=C/c1cccc([N+](=O)[O-])c1)c1ccncc1 [IPK 000 041 47] | 102%
O=C(N/N=C/c1cc(Br)cc(Br)c1O)c1ccncc1 [IPK 000 009 33] | 92.5%
O=C(NN=C1CCCC1)c1ccncc1 [IPK 000 013 70] | 98.1%
Cc1ccc2ccc3ccc(C)nc3c2n1 [IPK 000 002 03] | 7.7%
Brc1ccc(/C=N/Nc2nc(N3CCOCC3)nc(N3CCOCC3)n2)o1 [IPK 000 011 65] | 23.4%

Same assay, conditions: Mycobacterium tuberculosis, H37RV, Macrophage; confirmation, 20 uM; read-out: QIM Confirm % Inhibition 20 uM

Structure (SMILES) | inhibition at 20 µM
O=C(Nc1ccc([N+](=O)[O-])cc1)C12CC3CC(CC(C3)C1)C2 [IPK 000 022 33] | 90%
Clc1ccc(Nc2nc3nonc3nc2Nc2ccc(Cl)c(Cl)c2)cc1Cl [IPK 000 003 89] | 84.6%
O=C(N/N=C/c1cccc([N+](=O)[O-])c1)c1ccncc1 [IPK 000 041 47] | 95.5%
O=C(N/N=C/c1cc(Br)cc(Br)c1O)c1ccncc1 [IPK 000 009 33] | 56.9%
O=C(NN=C1CCCC1)c1ccncc1 [IPK 000 013 70] | 103%
Cc1ccc2ccc3ccc(C)nc3c2n1 [IPK 000 002 03] | -12.3%
Brc1ccc(/C=N/Nc2nc(N3CCOCC3)nc(N3CCOCC3)n2)o1 [IPK 000 011 65] | 41.9%

Same assay, conditions: Mycobacterium tuberculosis, H37RV, Macrophage; primary screen, 20 μM; read-out: Primary QIM % Inhibition

Structure (SMILES) | inhibition at 20 µM
O=C(Nc1ccc([N+](=O)[O-])cc1)C12CC3CC(CC(C3)C1)C2 [IPK 000 022 33] | 66%
Clc1ccc(Nc2nc3nonc3nc2Nc2ccc(Cl)c(Cl)c2)cc1Cl [IPK 000 003 89] | 27.7%
O=C(N/N=C/c1cccc([N+](=O)[O-])c1)c1ccncc1 [IPK 000 041 47] | 102%
O=C(N/N=C/c1cc(Br)cc(Br)c1O)c1ccncc1 [IPK 000 009 33] | 79.9%
O=C(NN=C1CCCC1)c1ccncc1 [IPK 000 013 70] | 88.3%
Cc1ccc2ccc3ccc(C)nc3c2n1 [IPK 000 002 03] | -28.5%
Brc1ccc(/C=N/Nc2nc(N3CCOCC3)nc(N3CCOCC3)n2)o1 [IPK 000 011 65] | 6.5%

The compounds below were run on Raw264.7 cells (assay: Cell number (CellNb) from image analysis of the phenotypic cell-based assay). Details: not given.

Structure (SMILES) | Primary QIM CellNb | QIM Confirm CellNb 0.2 uM | QIM Confirm CellNb 2 uM | QIM Confirm CellNb 20 uM
COc1ccc(OCCNC(=O)c2cc([N+](=O)[O-])cc([N+](=O)[O-])c2)cc1 [IPK 000 028 35] | 315.3 | 489.8 | 478.6 | 308.9

Same assay, conditions: confirmation, 0.2 uM

Structure (SMILES) | QIM Confirm CellNb 0.2 uM
O=C(Nc1ccc([N+](=O)[O-])cc1)C12CC3CC(CC(C3)C1)C2 [IPK 000 022 33] | 315.6
Clc1ccc(Nc2nc3nonc3nc2Nc2ccc(Cl)c(Cl)c2)cc1Cl [IPK 000 003 89] | 265.3
O=C(N/N=C/c1cccc([N+](=O)[O-])c1)c1ccncc1 [IPK 000 041 47] | 479.8
O=C(N/N=C/c1cc(Br)cc(Br)c1O)c1ccncc1 [IPK 000 009 33] | 264.8
O=C(NN=C1CCCC1)c1ccncc1 [IPK 000 013 70] | 412.6
Cc1ccc2ccc3ccc(C)nc3c2n1 [IPK 000 002 03] | 241.4
Brc1ccc(/C=N/Nc2nc(N3CCOCC3)nc(N3CCOCC3)n2)o1 [IPK 000 011 65] | 259.6

Same assay, conditions: confirmation, 2 uM

Structure (SMILES) | QIM Confirm CellNb 2 uM
O=C(Nc1ccc([N+](=O)[O-])cc1)C12CC3CC(CC(C3)C1)C2 [IPK 000 022 33] | 472.3
Clc1ccc(Nc2nc3nonc3nc2Nc2ccc(Cl)c(Cl)c2)cc1Cl [IPK 000 003 89] | 200.6
O=C(N/N=C/c1cccc([N+](=O)[O-])c1)c1ccncc1 [IPK 000 041 47] | 516.1
O=C(N/N=C/c1cc(Br)cc(Br)c1O)c1ccncc1 [IPK 000 009 33] | 475.9
O=C(NN=C1CCCC1)c1ccncc1 [IPK 000 013 70] | 510.9
Cc1ccc2ccc3ccc(C)nc3c2n1 [IPK 000 002 03] | 92.0
Brc1ccc(/C=N/Nc2nc(N3CCOCC3)nc(N3CCOCC3)n2)o1 [IPK 000 011 65] | 336.5

Same assay, conditions: confirmation, 20 uM

Structure (SMILES) | QIM Confirm CellNb 20 uM
O=C(Nc1ccc([N+](=O)[O-])cc1)C12CC3CC(CC(C3)C1)C2 [IPK 000 022 33] | 517.1
Clc1ccc(Nc2nc3nonc3nc2Nc2ccc(Cl)c(Cl)c2)cc1Cl [IPK 000 003 89] | 103.0
O=C(N/N=C/c1cccc([N+](=O)[O-])c1)c1ccncc1 [IPK 000 041 47] | 345.8
O=C(N/N=C/c1cc(Br)cc(Br)c1O)c1ccncc1 [IPK 000 009 33] | 333.6
O=C(NN=C1CCCC1)c1ccncc1 [IPK 000 013 70] | 518.5
Cc1ccc2ccc3ccc(C)nc3c2n1 [IPK 000 002 03] | 148.0
Brc1ccc(/C=N/Nc2nc(N3CCOCC3)nc(N3CCOCC3)n2)o1 [IPK 000 011 65] | 201.1

Same assay, conditions: primary screen, 20 μM

Structure (SMILES) | Primary QIM CellNb
O=C(Nc1ccc([N+](=O)[O-])cc1)C12CC3CC(CC(C3)C1)C2 [IPK 000 022 33] | 372.0
Clc1ccc(Nc2nc3nonc3nc2Nc2ccc(Cl)c(Cl)c2)cc1Cl [IPK 000 003 89] | 72.5
O=C(N/N=C/c1cccc([N+](=O)[O-])c1)c1ccncc1 [IPK 000 041 47] | 362.8
O=C(N/N=C/c1cc(Br)cc(Br)c1O)c1ccncc1 [IPK 000 009 33] | 314.5
O=C(NN=C1CCCC1)c1ccncc1 [IPK 000 013 70] | 309.3
Cc1ccc2ccc3ccc(C)nc3c2n1 [IPK 000 002 03] | 77.0
O=C(O)c1cn(C2CC2)c2cc(N3CCNCC3)c(F)cc2c1=O [IPK 000 117 14] | 546.0
Brc1ccc(/C=N/Nc2nc(N3CCOCC3)nc(N3CCOCC3)n2)o1 [IPK 000 011 65] | 145.5

These compounds were tested on M. tuberculosis H37Rv-GFP (assay: microbe, parasite or virus in culture). Details: Mycobacterium tuberculosis, read-out: QUM Confirm % Inhibition 0.2 uM.
Type: cell-based

Structure (SMILES) | inhibition at 0.2 µM
O=C(Nc1ccc([N+](=O)[O-])cc1)C12CC3CC(CC(C3)C1)C2 [IPK 000 022 33] | 35.7%
Clc1ccc(Nc2nc3nonc3nc2Nc2ccc(Cl)c(Cl)c2)cc1Cl [IPK 000 003 89] | 44%
O=C(N/N=C/c1cccc([N+](=O)[O-])c1)c1ccncc1 [IPK 000 041 47] | 43.8%
O=C(N/N=C/c1cc(Br)cc(Br)c1O)c1ccncc1 [IPK 000 009 33] | 31.8%
O=C(NN=C1CCCC1)c1ccncc1 [IPK 000 013 70] | 46.3%
Cc1ccc2ccc3ccc(C)nc3c2n1 [IPK 000 002 03] | 32.5%
COc1ccc(OCCNC(=O)c2cc([N+](=O)[O-])cc([N+](=O)[O-])c2)cc1 [IPK 000 028 35] | 94%
Brc1ccc(/C=N/Nc2nc(N3CCOCC3)nc(N3CCOCC3)n2)o1 [IPK 000 011 65] | 39.8%

Same assay, conditions: Mycobacterium tuberculosis, read-out: QUM Confirm % Inhibition 2 uM

Structure (SMILES) | inhibition at 2 µM
O=C(Nc1ccc([N+](=O)[O-])cc1)C12CC3CC(CC(C3)C1)C2 [IPK 000 022 33] | 45.4%
Clc1ccc(Nc2nc3nonc3nc2Nc2ccc(Cl)c(Cl)c2)cc1Cl [IPK 000 003 89] | 76.5%
O=C(N/N=C/c1cccc([N+](=O)[O-])c1)c1ccncc1 [IPK 000 041 47] | 82.3%
O=C(N/N=C/c1cc(Br)cc(Br)c1O)c1ccncc1 [IPK 000 009 33] | 44.5%
O=C(NN=C1CCCC1)c1ccncc1 [IPK 000 013 70] | 79.4%
Cc1ccc2ccc3ccc(C)nc3c2n1 [IPK 000 002 03] | 52.4%
COc1ccc(OCCNC(=O)c2cc([N+](=O)[O-])cc([N+](=O)[O-])c2)cc1 [IPK 000 028 35] | 98.1%
Brc1ccc(/C=N/Nc2nc(N3CCOCC3)nc(N3CCOCC3)n2)o1 [IPK 000 011 65] | 40.6%

Same assay, conditions: Mycobacterium tuberculosis, read-out: QUM Confirm % Inhibition 20 uM

Structure (SMILES) | inhibition at 20 µM
O=C(Nc1ccc([N+](=O)[O-])cc1)C12CC3CC(CC(C3)C1)C2 [IPK 000 022 33] | 74.2%
Clc1ccc(Nc2nc3nonc3nc2Nc2ccc(Cl)c(Cl)c2)cc1Cl [IPK 000 003 89] | 67%
O=C(N/N=C/c1cccc([N+](=O)[O-])c1)c1ccncc1 [IPK 000 041 47] | 99.5%
O=C(N/N=C/c1cc(Br)cc(Br)c1O)c1ccncc1 [IPK 000 009 33] | 69.8%
O=C(NN=C1CCCC1)c1ccncc1 [IPK 000 013 70] | 67.6%
Cc1ccc2ccc3ccc(C)nc3c2n1 [IPK 000 002 03] | 69.7%
COc1ccc(OCCNC(=O)c2cc([N+](=O)[O-])cc([N+](=O)[O-])c2)cc1 [IPK 000 028 35] | 48.3%
Brc1ccc(/C=N/Nc2nc(N3CCOCC3)nc(N3CCOCC3)n2)o1 [IPK 000 011 65] | 96.3%

Same assay, conditions: Mycobacterium tuberculosis, read-out: minimal inhibitory concentration (MIC)

Structure (SMILES) | MIC
NNC(=O)c1ccncc1 [INH, isoniazid, reference compound] | 0.1 µg/mL (≈ 0.729 µM)
